Assays:
[1] = tested on: lower eyelid festoons and malar edema; type: in vivo, human
Method: An initial study of 15 consecutive patients with malar edema and/or festoons were injected with doxycycline hyclate at a concentration of 10 mg/mL. Pre- and post-injection photographs were reviewed and graded on a scale of 0 to 3 (0 no festoon, 1 small festoon, 2 medium festoon, 3 large festoon) by two blinded physician observers. […] Student t-test was used for statistical analysis.
Institutional Review Board (IRB) approval was obtained. A retrospective chart review was performed on 15 consecutive patients injected with doxycycline hyclate at a concentration of 10 mg/mL directly into their malar edema and festoons. The primary outcome measure was improvement in the appearance of lower eyelid festoons or malar edema. Pre- and post-injection photographs were reviewed and graded on a scale of 0 to 3 (0 no festoon, 1 small festoon, 2 medium festoon, 3 large festoon) by two blinded physician observers. All pre- and post-treatment photographs were taken in a standardized position without the use of a flash device. Written consent was obtained for the use of photographs and is on file with the authors. Additional data collected included patient age, volume of injection, location of injection, number of injections, and subjective complaints. […] Student t-test was used for statistical analysis.
Patients were offered injections in clinic or in the operating room with intravenous sedation, with or without concurrent eyelid surgery. For injections performed in the operating room, doxycycline hyclate was ordered from the hospital pharmacy at a concentration of 10 mg/mL. For injections performed in the office, doxycycline hyclate 100 mg sterile powder, lyophilized (Fresenius Kabi, Lake Zurich, Illinois, USA) was diluted to a concentration of 10 mg/mL with sterile 0.9% bacteriostatic sodium chloride solution. The solution was refrigerated at […], used within 48 hours of reconstitution, and protected from direct sunlight. Injections were performed using 1.0 mL syringes on a 30-gauge needle, directly into the festoon in multiple deep and intermediate planes beneath skin and muscle. Analysis of protected health information was compliant with the Health Insurance Portability and Accountability Act (HIPAA) and adherent to the Declaration of Helsinki.

[2] = tested on: edema of festoons and malar mounds; assay: Studies of doxycycline as sclerosing agent at lower concentrations and compared with tetracycline; type: in vivo; details: versus tetracycline

Structure (SMILES): C[C@H]1c2cccc(O)c2C(=O)C2=C(O)[C@]3(O)C(=O)C(C(N)=O)=C(O)[C@@H](N(C)C)[C@@H]3[C@@H](O)[C@@H]21 [doxycycline hyclate]
- bruising, average duration ([1]; human, in vivo): 10 days
- patients reporting burning pain during the injection ([1]; human, in vivo): 100%
- skin redness, average duration of symptoms ([1]; human, in vivo): 2 days
- average (standard deviation) festoon grade after injection ([1]; post-injection, 10 mg/mL intralesional, scale 0 to 3, 20 treatment sides of 11 patients, mean follow up 22.5 weeks, p-value<0.001 vs initial): 0.9 (0.82)
- average (standard deviation) initial festoon grade ([1]; pre-injection, scale 0 to 3 (0 no festoon, 3 large festoon), 20 treatment sides of 11 patients, two blinded physician observers): 2.5 (0.58)
- risk of necrotizing dermalysis compared with tetracycline [2]: significantly lower risk
